Assay [1] has as its target T1, OX2 (Homo sapiens, UniProt O43614).
T1 sequence (O43614 1-444): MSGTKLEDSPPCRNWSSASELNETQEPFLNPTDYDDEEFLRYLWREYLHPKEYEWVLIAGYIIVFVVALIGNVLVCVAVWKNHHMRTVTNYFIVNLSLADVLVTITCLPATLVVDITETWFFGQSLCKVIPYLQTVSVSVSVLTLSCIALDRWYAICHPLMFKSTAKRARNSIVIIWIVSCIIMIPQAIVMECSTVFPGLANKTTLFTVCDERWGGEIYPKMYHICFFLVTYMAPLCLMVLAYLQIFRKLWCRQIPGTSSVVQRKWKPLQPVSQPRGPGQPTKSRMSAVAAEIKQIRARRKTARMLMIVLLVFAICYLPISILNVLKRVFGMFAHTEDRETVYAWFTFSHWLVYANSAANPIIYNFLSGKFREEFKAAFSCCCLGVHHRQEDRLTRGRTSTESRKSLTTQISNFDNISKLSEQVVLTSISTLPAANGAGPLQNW
The assay can be described thus: Orexin-receptor binding ability, [125I]-OX-A, CHO cell membranes expressing OX2. On the set-up: expressed in transfected cells; host or cells: CHO cells (membrane preparation). The procedure: (§1) The assay was carried out using a 96-well Wheat Germ Agglutinin Flash Plate (PerkinElmer). The volume in a single assay well was 100 ul, and the composition of the reaction solution was as follows:
(§2) 25 mM HEPES (pH 7.5), 1 mM CaCl2, 4.5 mM MgCl2, 0.5% BSA (bovine serum albumin), 0.1% sodium azide, 0.05% Tween-20, and 0.2% DMSO.
Cell membranes were prepared from recombinant CHO cells that expressed OX2 or OX1. The cell membranes were used in an amount of 5 μg protein/assay. Test compound in various concentrations, and 0.2 nM [^125I]-OX-A as tracer were added to the cell membranes, and then allowed to react at room temperature for 30 minutes. After completion of the reaction, the reaction solution as a whole was discarded, and the wells were then washed once with 200 ul of wash buffer (25 mM HEPES (pH 7.5), 1 mM CaCl2, 5 mM MgCl2, 0.5% BSA, 0.1% sodium azide, 0.05% Tween-20, and 525 mM sodium chloride). Finally, the radioactivity of each well was measured using a scintillation counter (TopCount, PerkinElmer). The obtained results are shown in terms of IC50 values (nM) in the following table.

Assay [2] concerns the target T2, OX1 (Homo sapiens, UniProt O43613).
T2 sequence (O43613 1-425): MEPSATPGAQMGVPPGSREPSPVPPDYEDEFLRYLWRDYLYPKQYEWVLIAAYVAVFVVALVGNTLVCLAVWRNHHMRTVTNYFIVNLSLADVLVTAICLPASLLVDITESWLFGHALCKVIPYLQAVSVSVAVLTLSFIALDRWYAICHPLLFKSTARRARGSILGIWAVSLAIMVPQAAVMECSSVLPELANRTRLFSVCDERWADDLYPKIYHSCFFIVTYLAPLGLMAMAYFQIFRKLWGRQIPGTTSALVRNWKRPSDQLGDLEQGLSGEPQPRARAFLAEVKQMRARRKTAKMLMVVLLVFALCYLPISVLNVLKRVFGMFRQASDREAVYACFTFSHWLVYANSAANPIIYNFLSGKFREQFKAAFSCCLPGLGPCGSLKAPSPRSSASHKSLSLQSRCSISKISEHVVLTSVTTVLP
The assay can be described thus: Antagonism PLAP reporter assay, HEK-293 cells expressing human OX1. The note with it: HEK-293, 1 nM human OX-A; IC50 converted to Ki by Cheng-Prusoff equation. On the set-up: expressed in transfected cells; host or cells: HEK-293 cell line, expression vector pBabeCLIH. Format: cell-based. The procedure:
(§3) The antagonistic function of the compound of the present invention to prevent the activation of OX2 and OX1 by orexin-A (OX-A), which is a natural peptide agonist, was measured using a cell-based reporter assay. A HEK-293 cell line expressing genetically recombinant human OX2 (accession No. NM_001526.3) or a HEK-293 cell line expressing genetically recombinant human OX1 (accession No. NM_001525.2), which had pBabeCLIH as expression vector, was used. The cells were plated at a density of 10,000 cells/well onto a non-coated 96-well plate in Dulbecco's modified Eagle medium (Sigma Cat No. D6046: 10% v/v heat-inactivated fetal bovine serum was contained). The cells were cultured at 37° C. overnight, so that they could adhere to the plate. On the following day, cells were incubated with a compound of the present invention dissolved in Dulbecco's modified Eagle medium (Sigma Cat No. A8806: 0.1% w/v bovine serum albumin was contained), and added to the cell plate to reach a final concentration of 0.1% dimethyl sulfoxide.
(§4) The thus obtained mixture was incubated at room temperature for 1 hour. Thereafter, human OX-A and forskolin were dissolved in the same medium as described above, which contained fetal bovine serum albumin, and the medium was then added to the cells, resulting in a final concentration of 300 nM forskolin. Subsequently, the cells were cultured at 37° C. for approximately 18 to 24 hours. During the culture, as a result of activation of the orexin receptor and subsequent dose-dependent increase in intracellular calcium concentration, a reporter enzyme, placental alkaline phosphatase (PLAP), was expressed under the control of a CRE x4+VIP promoter in a pBabeCLcre4vPdNN vector and secreted into the culture medium supernatant. On the following day, reporter enzyme activity was detected by mixing 5 ul of the culture medium supernatant with 20 ul of detection buffer (containing 1.34 g/L sodium bicarbonate, 1.27 g/L sodium carbonate and 0.2 g/L magnesium sulfate heptahydrate in water) and 25 ul of Lumi-Phos530 reagent (Wako Pure Chemical Industries Ltd.), followed by incubating the obtained mixture light-protected at room temperature for 2 hours, before performing luminescence measurement (ARVO Reader, PerkinElmer). The Kd value of human OX-A with respect to each receptor was measured by titration from 0 to 300 nM. Then, the IC50 value of the compound of the present invention with respect to the activity of 1 nM human OX-A was converted into a Ki value (nM) using the Cheng-Prusoff equation.

Assay [3] addresses T2, OX1. The assay can be described thus: Orexin-receptor binding ability, [125I]-OX-A, CHO cell membranes expressing OX1. On the set-up: expressed in transfected cells; host or cells: CHO cells (membrane preparation). As to the method:
as §1, §2
Cell membranes were prepared from recombinant CHO cells that expressed OX2 or OX1. The cell membranes were used in an amount of 5 μg protein/assay. […] Finally, the radioactivity of each well was measured using a scintillation counter (TopCount, PerkinElmer). The obtained results are shown in terms of IC50 values (nM) in the following table.

The target of assay [4] is T1, OX2. The assay can be described thus: Antagonism PLAP reporter assay, HEK-293 cells expressing human OX2. Type of assay: cell-based. On the set-up: expressed in transfected cells; host or cells: HEK-293 cell line, expression vector pBabeCLIH. The settings on record: HEK-293, 1 nM human OX-A; IC50 converted to Ki by Cheng-Prusoff equation. As to the method:
as §3, §4
For orientation: A reporter such as luciferase makes a cellular process visible.

[5] abbreviates: membranes of recombinant CHO cells, 0.2 nM [125I]-OX-A tracer, read-out: OX2 (IC50).
[6] abbreviates: membranes of recombinant CHO cells, 0.2 nM [125I]-OX-A tracer, read-out: OX1 (IC50).

These results are taken from patent US20120165339A1, “CYCLOPROPANE DERIVATIVES” (EISAI R&D MANAGEMENT CO., LTD., priority 2010, published 2012).

Like-named read-outs stand apart in the source and are kept apart here.

Take `COc1ccc(OCC2(c3ccccc3)CC2C(=O)Nc2ccccc2-c2nnc[nH]2)cc1OC` (stereo not drawn) [Example 35, N-[2-(1H-1,2,4-triazol-3-yl)phenyl]-2-[(3,4-dimethoxyphenyl)oxymethyl]-2-phenylcyclopropanecarboxamide]: the IC50 in assay [1] (setting [5]) turned out to be 47 nM; in assay [3] (setting [6]), 2040 nM. For the same compound, the Ki came out at 1900 nM in assay [2] and 122 nM in assay [4].

Regarding `COc1ccc(OCC2(c3ccccc3)CC2C(=O)Nc2ccncc2C(F)(F)F)cc1OC` (stereo not drawn) [Example 25, N-(3-trifluoromethylpyridin-4-yl)-2-[(3,4-dimethoxyphenyl)oxymethyl]-2-phenylcyclopropanecarboxamide], the half-inhibitory concentration (IC50) in assay [1] amounted to 27 nM; in assay [3] (setting [6]), 369 nM. Also, the Ki was more than 816 nM in assay [2] and 391 nM in assay [4].

Regarding `CCn1cc(OCC2(c3ccccc3)CC2C(=O)Nc2ccc(C#N)cn2)cn1` (stereo not drawn) [Example 80], the IC50 in assay [1] (setting [5]) turned out to be 54 nM; in assay [3] (setting [6]), 359 nM. Further, the Ki in assay [2] was more than 467 nM; in assay [4], 190 nM.

On to `COc1ccc(OCC2(c3ccccc3)CC2C(=O)Nc2ccc(F)nc2)cc1OC` (stereo not drawn) [Example 26], for which the values for the IC50 in assay [1] and in assay [3] were 43 nM and 27 nM, respectively. Further, the Ki in assay [2] turned out to be 70 nM; in assay [4], 12.8 nM.

For `COc1ccc(OCC2(c3ccccc3)CC2C(=O)Nc2ccc(F)cn2)cc1OC` (stereo not drawn) [Example 10, N-(5-fluoropyridin-2-yl)-2-[(3,4-dimethoxyphenyl)oxymethyl]-2-phenylcyclopropanecarboxamide], the values for the IC50 in assay [1] (setting [5]) and in assay [3] (setting [6]) were 3 nM and 56 nM, respectively. Further, the Ki amounted to 68.6 nM in assay [2] and 4.2 nM in assay [4].

`COc1ccc(CCC2(c3ccccc3)CC2C(=O)Nc2ccccn2)cc1OC` (stereo not drawn) [Example 99, N-(pyridin-2-yl)-2-[2-(3,4-dimethoxyphenyl)ethyl]-2-phenylcyclopropanecarboxamide]: the half-inhibitory concentration (IC50) in assay [1] (setting [5]) amounted to 43 nM; in assay [3] (setting [6]), 632 nM. For the same compound, the Ki in assay [2] is more than 816 nM; in assay [4], 154 nM.

Turning to `COc1ccc(OCC2(c3ccccc3)CC2C(=O)Nc2cncc(F)c2)cc1OC` (stereo not drawn) [Example 24, N-(5-fluoropyridin-3-yl)-2-[(3,4-dimethoxyphenyl)oxymethyl]-2-phenylcyclopropanecarboxamide], the IC50 amounted to 48 nM in assay [1] (setting [5]) and 805 nM in assay [3] (setting [6]). Besides, the values for the Ki in assay [2] and in assay [4] were more than 816 nM and 83.5 nM, respectively.

With `COc1ccc(OCC2(c3ccccc3)CC2C(=O)Nc2cc(C)ccn2)cc1OC` (stereo not drawn) [Example 36, N-(4-methylpyridin-2-yl)-2-[(3,4-dimethoxyphenyl)oxymethyl]-2-phenylcyclopropanecarboxamide], the figures for the half-maximal inhibitory concentration (IC50) in assay [1] (setting [5]) and in assay [3] (setting [6]) were 22 nM and 283 nM, respectively. The inhibition constant (Ki) in assay [2] was 699 nM; in assay [4], 43 nM.

Take `COc1ccc(OCC2(c3ccccc3)CC2C(=O)Nc2nc(C)cs2)cc1OC` (stereo not drawn) [Example 23, N-(4-methyl-1,3-thiazol-2-yl)-2-[(3,4-dimethoxyphenyl)oxymethyl]-2-phenylcyclopropanecarboxamide]: the IC50 was 14 nM in assay [1] (setting [5]) and 847 nM in assay [3] (setting [6]). Moreover, the Ki worked out at 624 nM in assay [2] and 15.8 nM in assay [4].

With `COc1ccc(OC[C@@]2(c3ccccc3)C[C@H]2C(=O)Nc2ccccn2)cc1OC` [Example 41, (1R,2S)—N-(pyridin-2-yl)-2-[(3,4-dimethoxyphenyl)oxymethyl]-2-phenylcyclopropanecarboxamide], the figures for the IC50 in assay [1] (setting [5]) and in assay [3] (setting [6]) were 35 nM and 374 nM, respectively. Besides, the values for the inhibition constant (Ki) in assay [2] and in assay [4] were 297 nM and 24.8 nM, respectively.

Take `CCc1nc(C)c(CC[C@@]2(c3ccccc3)C[C@H]2C(=O)Nc2ccc(C#N)cn2)s1` [Example 100, (1R,2R)—N-(5-cyanopyridin-2-yl)-2-[2-(2-ethyl-4-methyl-1,3-thiazol-5-yl)ethyl]-2-phenylcyclopropanecarboxamide]: the IC50 turned out to be 9 nM in assay [1] (setting [5]) and 58 nM in assay [3] (setting [6]). In addition, the values for the Ki in assay [2] and in assay [4] were 47.5 nM and 5.2 nM, respectively.

Turning to `CCn1nc(C)c(Cl)c1OCC1(c2ccccc2)CC1C(=O)Nc1ccc(F)cn1` (stereo not drawn) [Example 74], the 50% inhibitory concentration (IC50) was found to be 30 nM in assay [1] (setting [5]) and 359 nM in assay [3] (setting [6]). The Ki in assay [2] was more than 467 nM; in assay [4] it was 30.7 nM.

In the case of `COc1ccc(S(=O)(=O)CC2(c3ccccc3)CC2C(=O)Nc2ccc(Cl)cn2)cc1OC` (stereo not drawn) [Example 134, N-(5-chloropyridin-2-yl)-2-[(3,4-dimethoxyphenyl)sulfonylmethyl]-2-phenylcyclopropanecarboxamide], the half-inhibitory concentration (IC50) amounted to 79 nM in assay [1] and 261 nM in assay [3] (setting [6]). Moreover, the inhibitory constant (Ki) in assay [2] is more than 467 nM; in assay [4], 268 nM.

As to `COc1ccc(OCC2(c3ccccc3)CC2C(=O)Nc2cc(C)no2)cc1OC` (stereo not drawn) [Example 8, N-(3-methylisoxazol-5-yl)-2-[(3,4-dimethoxyphenyl)oxymethyl]-2-phenylcyclopropanecarboxamide], the IC50 amounted to 17 nM in assay [1] (setting [5]) and 1260 nM in assay [3] (setting [6]). Moreover, the Ki in assay [2] is more than 816 nM; in assay [4], 92.1 nM.

Regarding `CCn1cc(OC[C@@]2(c3ccccc3)C[C@H]2C(=O)Nc2ccc(F)cn2)ccc1=O` (racemic) [Example 56], the values for the IC50 in assay [1] and in assay [3] (setting [6]) were 14 nM and 160 nM, respectively. The Ki in assay [2] was 158 nM; in assay [4], 9.1 nM.

Usually IC50 stands for the concentration that inhibits the measured activity by half. What is called Ki is a dissociation constant, usually derived from enzyme kinetics or from competition with a known ligand. Read a high Ki as a looser hold on the target.
